Reference: a melting point compilation (Tetko et al.; mined from patent text by program, amines drawn as free bases though some values may be those of a salt)

With `CCOC(=O)CCn1ccn([C@H]2CCc3c(F)cc(F)cc3C2)c1=S` the melting point was 105 to 107 °C. In the case of `O=C1COc2ccccc2O1`, the melting point is reported as 45 to 53 °C. For `COc1ccc(S(=O)(=O)C2(C(=O)O)CCN(Cc3ccc(-c4ccccc4)cc3)CC2)cc1`, the melting point was 168 °C. Molecule `Cc1cnc(C(=O)c2[nH]c3cc(Cl)ccc3c2CC(=O)O)s1` has a melting point of 225 to 226 °C. Molecule `CC1(C)CN2C(=O)c3ccccc3C(O)(c3ccccc3)C2=N1` (stereo not drawn) has a melting point of 186 to 188 °C. For `O=C1NC(=O)C(=Cc2ccc(OCCN3C(=O)SC(Cc4ccccc4)C3=O)cc2)S1` (stereo not drawn), the melting point was 145 to 147 °C. `O=C1Nc2ccccc2C12COc1cc3c(cc12)OCCCO3` (stereo not drawn) gave a melting point of 235 to 236 °C. Work on `COc1c(OC)c(OC)c2c(=O)cc(-c3ccc(O)cc3)oc2c1OC` yielded a melting point of 187 to 188 °C. Work on `COc1cc2ncn([C@H](C)[C@](O)(Cn3cncn3)c3ccc(F)cc3F)c(=O)c2cc1OC` yielded a melting point of 157 to 159 °C. Molecule `C#Cc1ccc2ncsc2c1` has a melting point of 47.5 to 49 °C. Work on `c1ccc(CN2CCc3[nH]c4cccc(-c5ccccc5)c4c3CC2)cc1` yielded a melting point of 161 to 163 °C. `CC1(C)CCC(C)(C)c2cc(-c3cc(-c4ccc(C(=O)O)cc4)ccc3OCCCN)ccc21` showed a melting point of 243 °C. `Cc1c2c(cn1C)NC(=O)C(OC(=O)CCCN1C(=O)c3ccccc3C1=O)N=C2c1ccccc1` (stereo not drawn) showed a melting point of 210 to 212 °C. With `Cc1cc(NCCO)c2nn(-c3ccccc3)c(C)c2n1` the melting point was 159 to 161 °C. Work on `C=CCc1cn(C2OC(CO)C(O)C2O)c(=O)nc1N` (stereo not drawn) yielded a melting point of 176 °C. For `CN(C)S(=O)(=O)c1cc([N+](=O)[O-])ccc1Cl`, the melting point was 138 to 140 °C. For `OCC(O)Cc1nccn1CCCCc1ccc(OCc2coc(/C=C/c3ccc(C(F)(F)F)cc3)n2)cc1` (stereo not drawn), the melting point was 142 to 143 °C. For `O=C1CN(C(=O)c2ccccc2Cl)c2ccccc2N1`, the melting point was 222 to 224 °C. `CC(CC(=O)c1ccccc1)C(=O)N[C@@H](CS)C(=O)O` (stereo partly drawn) gave a melting point of 78 to 105 °C. In the case of `Cc1c(C(=O)N(C)N2CC=CCC2)nn(-c2ccc(Cl)cc2Cl)c1-c1ccc(Cl)cc1`, the melting point is reported as 138 °C. In the case of `O=C(Nc1ccc(C(=O)N2CCCc3ccccc32)cc1)c1ccccc1`, the melting point is reported as 202 to 204 °C. Molecule `CC(=O)c1ccc(F)c(N(C)C(C)=O)c1` has a melting point of 75.5 to 76.5 °C. In the case of `CN(C)C(=O)C(C)(C)n1cc(Br)c(-c2ccccc2)n1`, the melting point is reported as 122 to 124 °C. `COC(=O)Cc1c(NC(C)=O)n(C)c2ccccc12` showed a melting point of 126 to 128 °C. `O=C(O)c1cc2cc(F)ccc2n1Cc1ccncc1` showed a melting point of 282 to 283 °C. `CCOC(=O)C(=O)c1cn(-c2ccccc2)c2ccccc12` showed a melting point of 109 to 110 °C. In the case of `CCOC(=O)c1cc2c3n(ccc-2n1)CC(c1ccccc1)=N3`, the melting point is reported as 255 to 257 °C. In the case of `Oc1ccc2nc(-c3ccc(O)c(F)c3)oc2c1`, the melting point is reported as 269 to 271 °C. For `CC1(C)CC(N2CCCCCC2=O)CC(C)(C)N1O`, the melting point was 212 to 215 °C. Work on `COc1cc(-c2cc(=O)c3ccc(OCC(O)CNC(C)C)cc3o2)cc(OC)c1OC` (stereo not drawn) yielded a melting point of 106 to 107 °C. Work on `CC(C)(C)OC(=O)Nc1ccc(C#Cc2nccs2)cc1NC(=O)CC(=O)c1cccc(C#N)c1` yielded a melting point of 131 °C. In the case of `Cc1cc2c(cc1C#Cc1ccccc1)NC(=O)CC(c1cccc(-c3nccn3C)c1)=N2`, the melting point is reported as 202 to 205 °C. Molecule `ClCc1cccc(OCc2ccc3ccccc3n2)c1` has a melting point of 39 to 43 °C. `CC(C)Cc1ccc2c(c1)C(CO)c1cc(CC(C)C)ccc1-2` showed a melting point of 105 °C. For `O=C(O)CCCCN1C(=O)c2ccc([N+](=O)[O-])cc2C1=O`, the melting point was 172 °C. Work on `Brc1ccc(N2CCN(Cc3c[nH]c4ncccc34)CC2)cc1` yielded a melting point of 234 to 238 °C. `C[C@@H]1S[C@@H](C(=O)N(C)c2ccc(CN3CCOCC3)cc2)Cc2cc3c(cc2C1=O)OCO3` showed a melting point of 162 to 165 °C. In the case of `Cc1ccccc1CN1CCC(n2c(C)c(-c3ccccc3)[nH]c2=O)CC1`, the melting point is reported as 218 to 220 °C. In the case of `Cc1ccc(-c2csc(C(=O)Nc3nnn[nH]3)n2)cc1`, the melting point is reported as 276 to 278 °C. Work on `O=Cc1c(O)cc(O)cc1CCl` yielded a melting point of 164 to 166 °C. With `CC(C)(C=O)C(=O)C(C)(Cc1ccc(C(C)(C)C)cc1)C(=O)O` (stereo not drawn) the melting point was 116 to 118 °C. In the case of `O=C1c2c(-c3ccccc3)noc2CCC1CCCN1CCOCC1` (stereo not drawn), the melting point is reported as 86 to 88.5 °C. Molecule `Cc1c(S(=O)(=O)Nc2ccc(CO)cc2S(C)(=O)=O)sc2ccc(F)cc12` has a melting point of 120 to 121 °C. For `CC(C)N(CCOc1ccc(NC(=O)c2c[nH]c3c2C(=O)CCC3)cc1)C(C)C`, the melting point was 140 to 141 °C. `O=C1Cc2cccc(S(=O)(=O)c3ccc(Cl)cc3)c2N1` showed a melting point of 218 to 221 °C. `CC(c1ccc2[nH]c(C(F)(F)F)nc2c1)n1ccnc1` (stereo not drawn) showed a melting point of 165 °C. With `Cc1cc([N+](=O)[O-])sc1C(=O)c1sc(Nc2ccc(S(N)(=O)=O)cc2)nc1N` the melting point was 268 to 269 °C. With `CNC(=O)c1cc(N[C@@H]2c3ccccc3C[C@H]2O)c2nc(C)c(C)n2c1` (relative stereo) the melting point was 143 to 144 °C.
